Results taken from paper PMC7955127, “Preclinical small molecule WEHI-7326 overcomes drug resistance and elicits response in patient-derived xenograft models of human treatment-refractory tumors” (Cell Death & Disease, 2021).

Tests used:
[1] = system: COG-N-496x neuroblastoma PDX; test: High-risk neuroblastoma PDX COG-N-496x; type: in vivo, NSG mice; conditions: COG-N-496x PDX; 20 mg/kg i.v. twice weekly
Experimental: (§1) All animal studies were performed in accordance with the guidelines approved by University of New South Wales Animal Care and Ethics Committee (ACEC 17/53B) and in accordance with the requirements of the Australian Code for the Care and Use of Animals for Scientific Purposes. PDX models COG-N-440x and COG-N-496x were obtained from the Childhood Cancer Repository, Texas Tech University Health Sciences Center in Lubbock, TX, USA. 6–8 week old female NSG mice were engrafted by subcutaneous injection with 1 × 10^6 freshly thawed PDX tumor cells into one flank in a mixture of 100 μl RPMI-1640 and 100 μl Matrigel. Mice were monitored for tumor development three times weekly and tumor size measured using digital Vernier calipers. Treatments commenced when tumors reached 50 mm^3, following randomization into treatment arms. […] Mice were treated with either vincristine (0.5 mg/kg, once weekly i.p. in sterile saline for up to 5 weeks), WEHI-7326 (20 mg/kg; twice weekly i.v. in sterile saline for up to 5 weeks) or vehicle (as for WEHI-7326). For the Th-MYCN transgenic mouse model, spontaneous tumor growth in mice homozygous for the MYCN transgene was assessed by abdominal palpation at least twice a week. Treatments commenced once a small palpable tumor (~5 mm) was detected, following randomization to treatment arms. Mice were euthanized upon detection of an abdominal tumor of ~1 cm in diameter. […]

[2] = Metabolic stability in liver microsomes and cryopreserved hepatocytes; type: in vitro ADME; conditions: human, rat and mouse liver microsomes and cryopreserved hepatocytes
Excerpt: (§2) a Measured physicochemical and solubility data for WEHI-7326. […] Microsomal-predicted EH values are included.

[3] = system: COG-N-440x neuroblastoma PDX; test: High-risk neuroblastoma PDX COG-N-440x; type: in vivo, NSG mice; conditions: COG-N-440x PDX; 20 mg/kg i.v. twice weekly
Experimental: as §1

[4] = Measured physicochemical and solubility data
Excerpt: as §2

Plasma protein binding = type: in vitro ADME; conditions: mouse plasma
Excerpt: as §2

[5] = system: spontaneous neuroblastoma in Th-MYCN transgenic mice; test: Th-MYCN transgenic mouse model of neuroblastoma; type: in vivo; conditions: WEHI-7326 20 mg/kg i.v. twice weekly, standard-of-care combinations daily i.p. for 5 days
Experimental: as §1

[6] = system: MDA-MB-231 LNA DRE (docetaxel resistant breast cancer) xenograft; test: Orthotopic MDA-MB-231 LNA-DRE xenograft; type: in vivo, Balb/c nude mice; conditions: docetaxel 10 mg/kg weekly i.v., WEHI-7326 30 mg/kg biweekly i.v.
Experimental: LoVo (4 × 10^6), PC3 (3 × 10^6) or MDA-MB-231 LNA DRE (10^6) cells were collected by trypsination and injected with 50 μl 1:1 PBS:Matrigel (v/v) subcutaneously on the right flank of 18 female (LoVo), 40 male (PC3) or into 4th mammary fat pad of 40 female (MDA231) Balb/c nude mice. Tumor growth was monitored and average tumor size at commencement of dosing was 100 mm^3. Mice were randomized into 3 arms of each 5 (LoVo), 10 (PC3) or 12 (MDA23) mice respectively and treatment with vehicle (saline), WEHI-7326 (biweekly) or docetaxel (weekly) was administered via tail vein injection. Tumor volumes were measured at least twice weekly with calipers and the experiments were terminated when tumors in the control group started exceeding 1500 mm^3. For LoVo, both vehicle and 25 mg/kg WEHI-7326 groups were harvested 24 h, but 20 mg/kg WEHI-7326 group harvested 1 h post final dose. For PC3, docetaxel group was not harvested in an attempt to grow out resistant tumors.

134197 HGSOC PDX = test: HGSOC PDX model 134197; type: in vivo, NSG mice; conditions: 134197 cisplatin-resistant PDX; 20 mg/kg i.v. biweekly, 6 weeks
Experimental: Two to three mm ovarian tumor fragments were subcutaneously engrafted in the left flank of NSG mice and monitored by physical palpation for tumor growth and engraftment. Engrafted tumors were measured twice a week using digital Vernier calipers and maximum tumor diameter + perpendicular tumor length were digitally recorded into the Study Director software (v 3.0/4.0 StudyLog). Tumor volume was calculated automatically (tumor volume (mm^3) = 0.5236 x [larger diameter (mm) x smaller diameter (mm)^2]). Mice were randomized to treatment once their tumor volume reach 180–300 mm^3 and tumor measurements were performed twice a week up to 120 days or when the tumor volume reaches 700 mm^3.
Time to progressive disease (PD): Defined as the time (in days) from beginning of treatment to an increase in average tumor volume of >20% from the nadir (taken as the smallest average tumor volume recorded since treatment started or 200 mm^3 if nadir was <200 mm^3 as lesions smaller than this are difficult to measure with accuracy). Median time to harvest (TTH): Defined as the time (in days) from the beginning of treatment to day of harvest at 700 mm^3 and the median TTH was calculated and plotted using Kaplan-Meier curves. Based on ref. [27]. […]

SMILES: COc1ccc(CNc2nc(NCc3ccc(CN)cc3)nc(NN3CC(=O)NC3=O)n2)cc1 [WEHI-7326]
- Median survival [1]: 25 days
- Rate of metabolism [2]: low rates of metabolism
- Median survival [3]: 39 days
- Lipophilicity [4]: very low
- Solubility in common dosing vehicles ([4]; 5% [w/v] glucose, 0.9% [w/v] saline and isotonic acetate buffer pH 5): soluble
- Stability in dosing vehicles ([4]; storage in common dosing vehicles): negligible degradation
- Protein binding (Plasma protein binding): 61 % bound
- Median survival [5]: 44 days
- Tumor growth inhibition (TGI) [6]: 105%
- Median time to harvest (TTH) (134197 HGSOC PDX): 92 days
- Time to progressive disease (PD) (134197 HGSOC PDX): 35 days
